Structures can show the parent of a compound that is named as a salt.
Assays:
Assay in all cases: MIC assay with different strains, Example 35
Type in all cases: cell-based
[1] = system: Streptococcus pyogenes (ATCC 19615)
Protocol: (§1) The minimum inhibitory concentration (MIC) is used to determine the lowest concentration of a test product claiming antimicrobial effects that will inhibit growth of a microorganism. Each microbial suspension was adjusted approximately 10^7 to 10^8 colony forming units (CFU) per mL and labeled as the stock suspension. The stock suspension was further diluted to 1:200 in Mueller Hinton broth to obtain a test sample having a concentration of […]. The test sample was then tested for MIC as described in M202.R02. After incubation, each tube was examined for turbidity, which indicated growth or no growth. For the tubes where the product rendered the media turbid, an aliquot of the media was streaked onto agar plates to confirm growth or lack of growth.

[2] = system: Escherichia coli (ATCC 11229)
Protocol: as §1

[3] = system: Staphylococcus aureus (MRSA) (ATCC 33592)
Protocol: as §1

[4] = system: Staphylococcus aureus (ATCC 6538)
Protocol: as §1

[5] = system: Staphylococcus haemolyticus (ATCC 29970)
Protocol: as §1

[6] = system: Staphylococcus saprophyticus (ATCC 15305)
Protocol: as §1

[7] = system: Candida albicans (ATCC 10231)
Protocol: as §1

[8] = system: Enterobacter aerogenes (ATCC 13048)
Protocol: as §1

[9] = system: Acinetobacter baumannii (ATCC 19606)
Protocol: as §1

[10] = system: Staphylococcus epidermidis (ATCC 12228)
Protocol: as §1

[11] = system: Streptococcus pneumonia (ATCC 6303)
Protocol: as §1

[12] = system: Burkholderia cepacia (ATCC 25416)
Protocol: as §1

[13] = system: Enterococcus faecalis (ATCC 51299)
Protocol: as §1

[14] = system: Acinetobacter iwoffi (ATCC 15309)
Protocol: as §1

[15] = system: Pseudomonas aeruginosa (ATCC 9027)
Protocol: as §1

[16] = system: Micrococcus luteus (ATCC 4698)
Protocol: as §1

CCCCCCCCCCCCOC(=O)C(C)N(C)C (centres unmarked) [Nex-05, Dodecyl 2-(dimethylamino)propanoate hydrochloride]
MIC ([1]; Example 35): 0.313%
Growth/no growth ([1]; Sample Concentration 0.039%): Growth
Growth/no growth ([1]; Sample Concentration 0.078%): Growth
Growth/no growth ([1]; Sample Concentration 0.156%): Growth
MIC ([2]; Example 35): 0.625%
Growth/no growth ([2]; Sample Concentration 0.039%): Growth
Growth/no growth ([2]; Sample Concentration 0.078%): Growth
Growth/no growth ([2]; Sample Concentration 0.156%): Growth
Growth/no growth ([2]; Sample Concentration 0.313%): Growth
MIC ([3]; Example 35): 0.625%
Growth/no growth ([3]; Sample Concentration 0.039%): Growth
Growth/no growth ([3]; Sample Concentration 0.078%): Growth
Growth/no growth ([3]; Sample Concentration 0.156%): Growth
Growth/no growth ([3]; Sample Concentration 0.313%): Growth
MIC ([4]; Example 35): 2.5%
Growth/no growth ([4]; Sample Concentration 0.039%): Growth
Growth/no growth ([4]; Sample Concentration 0.078%): Growth
Growth/no growth ([4]; Sample Concentration 0.156%): Growth
Growth/no growth ([4]; Sample Concentration 0.313%): Growth
Growth/no growth ([4]; Sample Concentration 0.625%): Growth
Growth/no growth ([4]; Sample Concentration 1.25%): Growth
MIC ([5]; Example 35): 0.313%
Growth/no growth ([5]; Sample Concentration 0.039%): Growth
Growth/no growth ([5]; Sample Concentration 0.078%): Growth
Growth/no growth ([5]; Sample Concentration 0.156%): Growth
MIC ([6]; Example 35): 0.625%
Growth/no growth ([6]; Sample Concentration 0.039%): Growth
Growth/no growth ([6]; Sample Concentration 0.078%): Growth
Growth/no growth ([6]; Sample Concentration 0.156%): Growth
Growth/no growth ([6]; Sample Concentration 0.313%): Growth
MIC ([7]; Example 35): 0.313%
Growth/no growth ([7]; Sample Concentration 0.039%): Growth
Growth/no growth ([7]; Sample Concentration 0.078%): Growth
Growth/no growth ([7]; Sample Concentration 0.156%): Growth
MIC ([8]; Example 35): 1.25%
Growth/no growth ([8]; Sample Concentration 0.039%): Growth
Growth/no growth ([8]; Sample Concentration 0.078%): Growth
Growth/no growth ([8]; Sample Concentration 0.156%): Growth
Growth/no growth ([8]; Sample Concentration 0.313%): Growth
Growth/no growth ([8]; Sample Concentration 0.625%): Growth
MIC ([9]; Example 35): 0.313%
Growth/no growth ([9]; Sample Concentration 0.039%): Growth
Growth/no growth ([9]; Sample Concentration 0.078%): Growth
Growth/no growth ([9]; Sample Concentration 0.156%): Growth
MIC ([10]; Example 35): 0.313%
Growth/no growth ([10]; Sample Concentration 0.039%): Growth
Growth/no growth ([10]; Sample Concentration 0.078%): Growth
Growth/no growth ([10]; Sample Concentration 0.156%): Growth
MIC ([11]; Example 35): 0.156%
Growth/no growth ([11]; Sample Concentration 0.039%): Growth
Growth/no growth ([11]; Sample Concentration 0.078%): Growth
MIC ([12]; Example 35): 2.5%
Growth/no growth ([12]; Sample Concentration 0.039%): Growth
Growth/no growth ([12]; Sample Concentration 0.078%): Growth
Growth/no growth ([12]; Sample Concentration 0.156%): Growth
Growth/no growth ([12]; Sample Concentration 0.313%): Growth
Growth/no growth ([12]; Sample Concentration 0.625%): Growth
Growth/no growth ([12]; Sample Concentration 1.25%): Growth
MIC ([13]; Example 35): 0.313%
Growth/no growth ([13]; Sample Concentration 0.039%): Growth
Growth/no growth ([13]; Sample Concentration 0.078%): Growth
Growth/no growth ([13]; Sample Concentration 0.156%): Growth
MIC ([14]; Example 35): 0.156%
Growth/no growth ([14]; Sample Concentration 0.039%): Growth
Growth/no growth ([14]; Sample Concentration 0.078%): Growth
MIC ([15]; Example 35): 1.25%
Growth/no growth ([15]; Sample Concentration 0.039%): Growth
Growth/no growth ([15]; Sample Concentration 0.078%): Growth
Growth/no growth ([15]; Sample Concentration 0.156%): Growth
Growth/no growth ([15]; Sample Concentration 0.313%): Growth
MIC ([16]; Example 35): 0.313%
Growth/no growth ([16]; Sample Concentration 0.039%): Growth
Growth/no growth ([16]; Sample Concentration 0.078%): Growth
Growth/no growth ([16]; Sample Concentration 0.156%): Growth

— patent publication US20140357713A1, “ANTIMICROBIAL COMPOUNDS AND METHODS OF USE” (NexMed Holdings, Inc., priority 2012, published 2014)
